Laboratory results from US20250152547A1, “COMPOSITIONS FOR DELIVERY OF LADOSTIGIL” (priority 2019, published 2025).

Key:
[1] = Concentration of ladostigil in plasma of human subjects after a single oral dose (LC/MS/MS); type: in vivo, humans; conditions: read-out: Concentration of ladostigil in plasma, mean ± STD (coefficient of variation)
[2] = Blood levels of ladostigil after oral administration, detection time and inter subject variability; type: in vivo, humans and rodent species
Method: Ladostigil is well absorbed from the gastro intestinal tract and can be detected in the blood within 15 minutes after oral administration in humans and rodent species. However, the inter subject variability in these blood levels at peak times after administration is very high with coefficients of variation of more than 100% irrespective of the dose administered. (Table 1). This is undesirable and could exacerbate any variability in the response to treatment by ladostigil of potential patients. The wide inter individual variation in blood levels may explain why the therapeutic effect of the drug in the clinical trial was not more pronounced.

[3] = Concentration of ladostigil in brain (cortex) of rats after oral or rectal administration (LC-MS/MS); type: in vivo; conditions: male, Wistar, rat, read-out: Concentration of ladostigil in brain (cortex), mean ± STD (coefficient of variation)
Method: (§1) Methods: Male Wister rats weighing 250-270g were used for these experiments. Ladostigil was administered by gavage at a dose of 5 mg/kg (volume 0.25-0.27ml). In other rats, the same dose of ladostigil was administered via a cannula gently inserted into the rectum and pushed forward to reach the colon. The rats were anesthetized with isofluorane and sacrificed by decapitation at 0, 15, 30, 60 or 120 min after ladostigil administration. The brain was removed, and the cortex carefully dissected and stored at-80° C. until further analysis. Blood was collected in heparinized Eppendorf tubes, centrifuged at 4° C., 20,800 g for 10 min and the plasma was stored at −80° C. until further analysis.
(§2) Samples were prepared for LC-MS analysis after precipitating the proteins in plasma and cortical extracts with methanol as described in Moradov et al. (2015). Briefly, rivastigmine 750 ng/ml (internal standard) was added to 50 μl of plasma or supernatant after brain homogenization and ladostigil was extracted with HPLC grade MeOH. 75 μl of double distilled water (DDW) was added to 150 μl of the supernatant to give a final ratio of DDW:MeOH 1:1. The samples were filtered through […] GHP membranes and injected into the LC-MS machine. LC-MS/MS analysis was also performed as described in Moradov et al. (2015).
(§3) Ladostigil and rivastigmine were detected by an AB Sciex (Framingham, MA, USA) Triple Quad™ 5500 mass spectrometer in positive ion mode by electrospray ionization (ESI) and a multiple reaction monitoring (MRM) mode of acquisition. Data acquisition and analysis were performed on a Dell Optiplex 960 computer with Analyst 1.6.2 software distributed by AB Sciex. Quantitative calibration (0-100 ng/ml) was performed before every batch of samples. The calibration curve (y=a+bx) was obtained by linear least-squares regression of the measured peak area (y) versus the concentration added to the biological matrix (x). The limit of quantification (LOQ) of ladostigil in plasma and cortex was 50 pg/ml.

[4] = Concentration of ladostigil in plasma of rats after oral or rectal administration (LC-MS/MS); type: in vivo; conditions: rat
Method: as §1, with “Ladostigil was administered by gavage at a dose of 5 mg/kg (volume 0.25-0.27ml).” left out, “The rats were anesthetized with isofluorane and sacrificed by decapitation at 0, 15, 30, 60 or 120 min after ladostigil administration.” left out
as §2, §3

[5] = Concentration of ladostigil in brain (cortex) of rats after oral or rectal administration (LC-MS/MS); type: in vivo; conditions: male, Wistar, rat, read-out: Concentration of ladostigil in brain (cortex), mean ± STD (coefficient of variation); remark: listed apart in the source
[6] = normal healthy subjects aged 18-40, single oral dose 50 mg
[7] = normal healthy subjects aged 18-40, single oral dose 100 mg
[8] = oral administration (gavage) 5 mg/kg
[9] = other: rectal administration, rectal administration 5 mg/kg

Structure (SMILES): C#CCN[C@@H]1CCc2ccc(OC(=O)N(C)CC)cc21 [ladostigil, 6-(N-ethyl, N-methyl, carbamyloxy)-N propargyl-1(R)-aminoindan, tartarate]
- concentration at 15 min [1, 6]: 3.74 ng/mL
- concentration at 30 min [1, 6]: 18 ng/mL
- concentration at 60 min [1, 6]: 8.29 ng/mL
- concentration at 120 min [1, 6]: 2.88 ng/mL
- concentration at 15 min [1, 7]: 9.3 ng/mL
- concentration at 30 min [1, 7]: 34.8 ng/mL
- concentration at 60 min [1, 7]: 97.6 ng/mL
- concentration at 120 min [1, 7]: 44.4 ng/mL
- concentration at 180 min ([1]; normal healthy subjects aged 18-40, single oral dose 100 mg, 180 min): 15.3 ng/mL
- Coefficient of variation of blood levels (inter subject variability) ([2]; at peak times after oral administration, irrespective of the dose): more than 100%
- Time after which ladostigil can be detected in the blood ([2]; oral administration, humans and rodent species): ≤ 15 min
- concentration at 15 min [3, 8]: 17.9 ng/g
- concentration at 30 min [3, 8]: 9.3 ng/g
- concentration at 60 min [3, 8]: 6.7 ng/g
- concentration at 120 min [3, 8]: 4.9 ng/g
- concentration at 15 min [3, 9]: 14.3 ng/g
- concentration at 30 min [3, 9]: 11.9 ng/g
- concentration at 60 min [3, 9]: 9.3 ng/g
- concentration at 120 min [3, 9]: 7.4 ng/g
- concentration at 15 min ([4]; male, Wistar, other: rectal administration, rats, rectal administration 5 mg/kg, 15 min, read-out: Concentration of ladostigil in plasma, mean ± STD (coefficient of variation)): 60.6 ng/mL
- concentration at 30 min ([4]; male, Wistar, other: rectal administration, rats, rectal administration 5 mg/kg, 30 min, read-out: Concentration of ladostigil in plasma, mean ± STD (coefficient of variation)): 47.2 ng/mL
- concentration at 60 min ([4]; male, Wistar, other: rectal administration, rats, rectal administration 5 mg/kg, 60 min, * significantly higher than after oral treatment p < 0.05, read-out: Concentration of ladostigil in plasma, mean ± STD (coefficient of variation)): 33.7 ng/mL
- concentration at 120 min ([4]; male, Wistar, other: rectal administration, rats, rectal administration 5 mg/kg, 120 min, * significantly higher than after oral treatment p < 0.05, read-out: Concentration of ladostigil in plasma, mean ± STD (coefficient of variation)): 14.1 ng/mL
- concentration at 180 min ([4]; male, Wistar, other: rectal administration, rats, rectal administration 5 mg/kg, 180 min, * significantly higher than after oral treatment p < 0.05, read-out: Concentration of ladostigil in plasma, mean ± STD (coefficient of variation)): 13.9 ng/mL
- concentration at 15 min ([4]; male, Wistar rats, single oral dose 5 mg/kg, 15 min (Table 1), read-out: Concentration of ladostigil in plasma, mean ± STD (coefficient of variation)): 53.7 ng/mL
- concentration at 30 min ([4]; male, Wistar rats, single oral dose 5 mg/kg, 30 min (Table 1), read-out: Concentration of ladostigil in plasma, mean ± STD (coefficient of variation)): 36.4 ng/mL
- concentration at 60 min ([4]; male, Wistar rats, single oral dose 5 mg/kg, 60 min (Table 1), read-out: Concentration of ladostigil in plasma, mean ± STD (coefficient of variation)): 8.3 ng/mL
- concentration at 120 min ([4]; male, Wistar rats, single oral dose 5 mg/kg, 120 min (Table 1), read-out: Concentration of ladostigil in plasma, mean ± STD (coefficient of variation)): 4.9 ng/mL
- concentration at 180 min ([4]; male, Wistar rats, single oral dose 5 mg/kg, 180 min (Table 1), read-out: Concentration of ladostigil in plasma, mean ± STD (coefficient of variation)): 2.4 ng/mL
- concentration at 15 min ([4]; Wistar rats, single oral dose 1 mg/kg, 15 min, read-out: Concentration of ladostigil in plasma, mean ± STD (coefficient of variation)): 18.7 ng/mL
- concentration at 30 min ([4]; Wistar rats, single oral dose 1 mg/kg, 30 min, read-out: Concentration of ladostigil in plasma, mean ± STD (coefficient of variation)): 12.3 ng/mL
- concentration at 60 min ([4]; Wistar rats, single oral dose 1 mg/kg, 60 min, read-out: Concentration of ladostigil in plasma, mean ± STD (coefficient of variation)): 6.7 ng/mL
- concentration at 120 min ([4]; Wistar rats, single oral dose 1 mg/kg, 120 min, read-out: Concentration of ladostigil in plasma, mean ± STD (coefficient of variation)): 1.6 ng/mL
- concentration at 180 min [5, 8]: 2.9 ng/g
- concentration at 180 min [5, 9]: 2.8 ng/g
